Reference: paper PMC11352945, “Anticancer Activity of Benzo[a]phenoxazine Compounds Promoting Lysosomal Dysfunction” (Cells, 2024)
Values after ≈ are worked out from the molar mass of the structure shown.

Legend:
NCM460 cells = experiment: Sulforhodamine B (SRB) cell viability assay, NCM460; assay type: cell-based; details: Homo sapiens, non-neoplastic cell line, 48 h, read-out: IC50 (μM) ± SD, NCM460
Protocol: (§1) The cells were allowed to adhere overnight, from 12 h to 18 h, and then treated with increasing concentrations of each compound, C9, A36, and A42 (0.125 μM, 0.25 μM, 0.5 μM, 1 μM, 2.5 μM, and 5 μM), in their respective culture mediums for 48 h. In addition to a negative control that consisted only of cells and growth medium, a negative control containing the highest concentration of the solvent in which the compound was dissolved (DMSO 0.1%) was also used. The SRB assay was performed according to Marques et al.. The IC50 values were obtained using GraphPad Prism version 8.2.1 through the application of a sigmoidal dose–response nonlinear regression, after logarithmic transformation. The selectivity index was determined by dividing the IC50 value of the non-neoplastic BJ-5ta cell line by the IC50 value of the cancer cell lines (IC50 BJ-5ta/IC50 cancer cell line); furthermore, for the CRC model, a second selectivity index was also determined using the non-neoplastic NCM460 cell line (IC50 NCM460/IC50 CRC cell line). According to the results of the selectivity index, the cell line with the highest selectivity value for each of the models, CRC and breast, was selected for subsequent characterization.
(§2) Three CRC-derived cell lines, SW480 (KRAS^G12V), HCT116 (KRAS^G13D), and RKO (BRAF^V600E), harboring somatic mutations on KRAS or BRAF, and two breast-cancer-derived cell lines, MDA-MB-231 (basal like) and MCF7 (luminal A subtype), together with two non-neoplastic cell lines, NCM460 (normal colon mucosal epithelial cell line) and BJ-5ta (normal foreskin fibroblast cell line), were used to study the activity and selectivity of the three new benzo[a]phenoxazine compounds, C9, A36, and A42. All cell lines were treated with a range of drug concentrations (0.125 μM, 0.25 μM, 0.5 μM, 1 μM, 2.5 μM, and 5 μM) for 48 h, and the effect on cell viability was assessed using a sulforhodamine B assay (SRB) (Figure 2). […] In addition, the selectivity index was determined using the BJ-5ta cell line as a reference, as well as the NCM460 cell line for the CRC model (Table 1).

SW480 cells = experiment: Sulforhodamine B (SRB) cell viability assay, SW480; assay type: cell-based; details: Homo sapiens, CRC cell line, 48 h, read-out: IC50 (μM) ± SD, SW480
Protocol: as §1, §2

MCF7 cells [1] = experiment: Sulforhodamine B (SRB) cell viability assay, MCF7; assay type: cell-based; details: Homo sapiens, breast cancer cell line, 48 h, read-out: IC50 (μM) ± SD, MCF7
Protocol: as §1, §2

MDA-MB-231 cells = experiment: Sulforhodamine B (SRB) cell viability assay, MDA-MB-231; assay type: cell-based, human
Protocol: as §1
Three CRC-derived cell lines, SW480 (KRAS^G12V), HCT116 (KRAS^G13D), and RKO (BRAF^V600E), harboring somatic mutations on KRAS or BRAF, and two breast-cancer-derived cell lines, MDA-MB-231 (basal like) and MCF7 (luminal A subtype), together with two non-neoplastic cell lines, NCM460 (normal colon mucosal epithelial cell line) and BJ-5ta (normal foreskin fibroblast cell line), were used to study the activity and selectivity of the three new benzo[a]phenoxazine compounds, C9, A36, and A42. All cell lines were treated with a range of drug concentrations (0.125 μM, 0.25 μM, 0.5 μM, 1 μM, 2.5 μM, and 5 μM) for 48 h, and the effect on cell viability was assessed using a sulforhodamine B assay (SRB) (Figure 2). The results were used to determine the IC50 value of each compound for all the cell lines (Table 1). In addition, the selectivity index was determined using the BJ-5ta cell line as a reference, as well as the NCM460 cell line for the CRC model (Table 1).

MCF7 cells [2] = experiment: Wound healing assay, MCF7; assay type: cell-based, human; details: MCF7, IC50 and 2 × IC50, 12 h (controls approximately 12.5%)
Protocol: RKO and MCF7 cells were seeded in 12-well plates at densities of 5 × 10^5 cells/mL and 4.5 × 10^5 cells/mL, respectively. After 24 h, a wound was created by scraping the cell layer using a 1 mm pipette tip. The cells were treated with C9, A36, and A42 at IC50 and 2 × IC50 concentrations or 0.1% DMSO (vehicle). Untreated cells were used as controls. The wound regions were photographed at 0 and 12 h, and migration was assessed using the Image J software. The relative migration was calculated in relation to the untreated controls.

RKO cells = experiment: Intracellular pH evaluation (BCECF-AM, flow cytometry), RKO; assay type: cell-based, human; details: 2 × IC50 and 4 × IC50, 48 h
Protocol: (§3) Evaluations of the intracellular pHs (pHi) of the RKO and MCF7 cells were performed through a flow cytometry optimized protocol using the pH-sensitive probe BCECF-AM. RKO and MCF7 cells were seeded in 12-well plates at a density of 1 × 10^5 cells/mL. After 24 h, the cells were treated with the compounds C9, A36, and A42 at 2 × IC50 and 4 × IC50 concentrations or 0.1% DMSO (vehicle). As a control, untreated cells were used. Attached and floating cells were collected, washed, and then resuspended in Hank’s balanced salt solution (HBSS) after a 48 h treatment period. After that, the cells were stained with 1 μM of BCECF-AM for 30 min at 37 °C. The samples were analyzed by flow cytometry. The FITC-A and PE-A channels were used to detect the fluorescence mean of BCECF-AM.
(§4) To further support LMP’s role in cell death induction, we investigated the effects of the compounds on intracellular pH (pHi), as LMP induction is associated with an increase in cytosolic proton levels and, as a result, a reduction in intracellular pH [67, 68, 69]. We used the dual-emission ratiometric pH-sensitive probe BCECF-AM, which emits fluorescence based on pHi. The result of acidification was shown by a decrease in the fluorescence ratio between BCECF-AM green (FITC-FL1) and red fluorescence (PE-FL2) (FL1/FL2). […]

MCF7 cells [3] = experiment: Intracellular pH evaluation (BCECF-AM, flow cytometry), MCF7; assay type: cell-based, human; details: MCF7, 2 × IC50 and 4 × IC50, 48 h
Protocol: as §3, §4

S. cerevisiae = details: yeast S. cerevisiae, microdilution; cited from earlier work

CCCNc1cc2oc3cc(=NCC)c(C)cc-3nc2c2ccccc12 [C9]
IC50 (NCM460 cells): 1.12 ± 0.13 µM | IC50 (SW480 cells): 0.78 ± 0.09 µM | IC50 (MCF7 cells [1]): 0.84 ± 0.06 µM | IC50 (MDA-MB-231 cells; Homo sapiens, MDA-MB-231, breast cancer cell line, 48 h, SRB, read-out: IC50 (μM) ± SD, MDA-MB-231): 1.19 ± 0.05 µM | Selectivity Index Cell Line IC50/BJ-5ta IC50 (MDA-MB-231 cells; MDA-MB-231 versus BJ-5ta): 2.14 | Effect on cell migration (wound closure) (MCF7 cells [2]): more pronounced effect | Intracellular acidification (BCECF-AM FL1/FL2 ratio) (RKO cells): most pronounced effect | Intracellular acidification (BCECF-AM FL1/FL2 ratio) (MCF7 cells [3]): most pronounced effect | MIC (minimum inhibitory concentration) (S. cerevisiae): 6.25 µM (≈ 2.16 µg/mL)
